Reference: paper PMC4867616, “Imaging of Cerebral Amyloid Angiopathy with Bivalent ^99mTc-Hydroxamamide Complexes” (Scientific Reports, 2016)
Several values for one entry are separate records, joined by “and”; a condition that tells them apart may be missing. Equal entries are not always repeated.

Tests used:
Aβ = biological target: Aβ; set-up: method as in PMID 12801237, PMID 19837759; conditions: order of magnitude only; cited from earlier work
[1] = Ex vivo biodistribution in normal mice; set-up: species or system ddY mice; conditions: i.v., mean (SD), 5 animals
Protocol: To evaluate brain uptake of ^99mTc-Ham complexes, biodistribution experiments of ^99mTc-Ham complexes were performed in normal mice. We selected ^18F-florbetapir as a control and compared the results of ^99mTc-Ham complexes with that of ^18F-florbetapir (Fig. 2). The brain uptake of [^99mTc]SB1A, [^99mTc]SB2A, [^99mTc]BT1B, and [^99mTc]BT2B at 2 min postinjection was 0.37, 0.28, 0.36, and 0.37% injected dose (ID)/g, respectively. The radioactivity in the brains remained low until 60 min postinjection. The results of the biodistribution study are shown in Table S1 in Supplementary information.
A saline solution (100 μL) of ^99mTc-Ham complexes (20 kBq) containing EtOH (10 μL) was injected directly into the tail vein of ddY mice (male, 5 weeks old). The mice were sacrificed at 2, 10, 30, and 60 min postinjection. The organs of interest were removed and weighed, and radioactivity was measured using a γ counter (PerkinElmer). The %ID/g of samples was calculated by comparing the sample counts with the count of the diluted initial dose.
*Corresponding author: M. Ono. Address: 46-29 Yoshida Shimoadachi-cho, Sakyo-ku, Kyoto 606-8501, Japan, Phone: +81-75-753-4608, Fax: +81-75-753-4568, E-mail: ono@pharm.kyoto-u.ac.jp. Ex vivo biodistribution in normal mice. A saline solution (100 μL) of ^99mTc-Ham complexes (20 kBq) containing EtOH (10 μL) was injected directly into the tail vein of ddY mice (male, 5 weeks old). The mice were sacrificed at 2, 10, 30, and 60 min postinjection. The organs of interest were removed and weighed, and radioactivity was measured using a γ counter (Wallac 1470 Wizard; PerkinElmer, Massachusetts, USA). Percentage dose per organ was calculated by comparing the tissue counts to suitably diluted aliquots of the injected material. The %dose/g of samples was calculated by comparing the sample counts with the count of the diluted initial dose.

[2] = normal mice, 2 min postinjection, similar experimental conditions; cited from earlier work

Thioflavin-S
Kd (Aβ): μM order

CN(C)c1ccc(/C=C/c2ccc(C3=N[O][99Tc-]4(=[O])([NH]C(c5ccc(N(C)C)cc5)=N[O]4)[NH2+]3)cc2)cc1 (single isomer, unassigned) [[^99mTc]SB1A]
Biodistribution of radioactivity, Blood ([1]; 2 min after injection): 18.89 (4.57) % injected dose per gram | Biodistribution of radioactivity, Brain ([1]; 2 min after injection): 0.37 % injected dose per gram and 0.37 (0.05) % injected dose per gram | Biodistribution of radioactivity, Heart ([1]; 2 min after injection): 9.48 (2.01) % injected dose per gram | Biodistribution of radioactivity, Intestine ([1]; 2 min after injection): 1.94 (0.25) % injected dose per gram | Biodistribution of radioactivity, Kidney ([1]; 2 min after injection): 10.74 (2.03) % injected dose per gram | Biodistribution of radioactivity, Liver ([1]; 2 min after injection): 28.55 (4.86) % injected dose per gram | Biodistribution of radioactivity, Lung ([1]; 2 min after injection): 15.47 (4.14) % injected dose per gram | Biodistribution of radioactivity, Pancreas ([1]; 2 min after injection): 4.12 (0.62) % injected dose per gram | Biodistribution of radioactivity, Spleen ([1]; 2 min after injection): 9.73 (3.34) % injected dose per gram | Biodistribution of radioactivity, Stomach ([1]; 2 min after injection): 1.64 (0.41) % injected dose per organ | Biodistribution of radioactivity, Blood ([1]; 10 min after injection): 9.30 (1.96) % injected dose per gram | Biodistribution of radioactivity, Brain ([1]; 10 min after injection): 0.19 (0.02) % injected dose per gram | Biodistribution of radioactivity, Heart ([1]; 10 min after injection): 6.51 (0.77) % injected dose per gram | Biodistribution of radioactivity, Intestine ([1]; 10 min after injection): 4.27 (0.88) % injected dose per gram | Biodistribution of radioactivity, Kidney ([1]; 10 min after injection): 9.48 (1.28) % injected dose per gram | Biodistribution of radioactivity, Liver ([1]; 10 min after injection): 31.03 (2.29) % injected dose per gram | Biodistribution of radioactivity, Lung ([1]; 10 min after injection): 9.67 (0.88) % injected dose per gram | Biodistribution of radioactivity, Pancreas ([1]; 10 min after injection): 3.09 (0.38) % injected dose per gram | Biodistribution of radioactivity, Spleen ([1]; 10 min after injection): 9.70 (3.03) % injected dose per gram | Biodistribution of radioactivity, Stomach ([1]; 10 min after injection): 4.54 (0.97) % injected dose per organ | Biodistribution of radioactivity, Blood ([1]; 30 min after injection): 6.06 (0.29) % injected dose per gram | Biodistribution of radioactivity, Brain ([1]; 30 min after injection): 0.16 (0.03) % injected dose per gram | Biodistribution of radioactivity, Heart ([1]; 30 min after injection): 2.98 (0.63) % injected dose per gram | Biodistribution of radioactivity, Intestine ([1]; 30 min after injection): 7.06 (1.67) % injected dose per gram | Biodistribution of radioactivity, Kidney ([1]; 30 min after injection): 6.18 (0.84) % injected dose per gram | Biodistribution of radioactivity, Liver ([1]; 30 min after injection): 20.17 (3.18) % injected dose per gram | Biodistribution of radioactivity, Lung ([1]; 30 min after injection): 5.31 (0.67) % injected dose per gram | Biodistribution of radioactivity, Pancreas ([1]; 30 min after injection): 1.74 (0.33) % injected dose per gram | Biodistribution of radioactivity, Spleen ([1]; 30 min after injection): 7.86 (1.11) % injected dose per gram | Biodistribution of radioactivity, Stomach ([1]; 30 min after injection): 10.28 (2.03) % injected dose per organ | Biodistribution of radioactivity, Blood ([1]; 60 min after injection): 2.71 (0.14) % injected dose per gram | Biodistribution of radioactivity, Brain ([1]; 60 min after injection): 0.08 (0.00) % injected dose per gram | Biodistribution of radioactivity, Heart ([1]; 60 min after injection): 4.30 (0.14) % injected dose per gram | Biodistribution of radioactivity, Intestine ([1]; 60 min after injection): 14.34 (2.35) % injected dose per gram | Biodistribution of radioactivity, Kidney ([1]; 60 min after injection): 9.66 (0.18) % injected dose per gram | Biodistribution of radioactivity, Liver ([1]; 60 min after injection): 22.16 (2.20) % injected dose per gram | Biodistribution of radioactivity, Lung ([1]; 60 min after injection): 5.14 (0.29) % injected dose per gram | Biodistribution of radioactivity, Pancreas ([1]; 60 min after injection): 2.67 (0.07) % injected dose per gram | Biodistribution of radioactivity, Spleen ([1]; 60 min after injection): 5.44 (0.49) % injected dose per gram | Biodistribution of radioactivity, Stomach ([1]; 60 min after injection): 6.63 (1.12) % injected dose per organ

CNc1ccc(/C=C/c2ccc(OCCOCCOCCF)nc2)cc1 [[^18F]florbetapir, reference compound]
Initial brain uptake [2]: 4.90 %ID/g | Kd (Aβ): nM order

CN(C)c1ccc(C2=N[O][99Tc-]3(=[O])([NH]2)[NH2+]C(c2ccc4nc(-c5ccc(N(C)C)cc5)sc4c2)=N[O]3)cc1 [[^99mTc]BT1B]
Biodistribution of radioactivity, Blood ([1]; 2 min after injection): 18.61 (2.47) % injected dose per gram | Biodistribution of radioactivity, Brain ([1]; 2 min after injection): 0.36 % injected dose per gram and 0.36 (0.03) % injected dose per gram | Biodistribution of radioactivity, Heart ([1]; 2 min after injection): 5.25 (0.22) % injected dose per gram | Biodistribution of radioactivity, Intestine ([1]; 2 min after injection): 0.90 (0.25) % injected dose per gram | Biodistribution of radioactivity, Kidney ([1]; 2 min after injection): 5.94 (0.73) % injected dose per gram | Biodistribution of radioactivity, Liver ([1]; 2 min after injection): 19.90 (4.06) % injected dose per gram | Biodistribution of radioactivity, Lung ([1]; 2 min after injection): 10.87 (2.06) % injected dose per gram | Biodistribution of radioactivity, Pancreas ([1]; 2 min after injection): 1.80 (0.28) % injected dose per gram | Biodistribution of radioactivity, Spleen ([1]; 2 min after injection): 3.83 (0.84) % injected dose per gram | Biodistribution of radioactivity, Stomach ([1]; 2 min after injection): 1.39 (0.21) % injected dose per organ | Biodistribution of radioactivity, Blood ([1]; 10 min after injection): 9.34 (2.62) % injected dose per gram | Biodistribution of radioactivity, Brain ([1]; 10 min after injection): 0.17 (0.04) % injected dose per gram | Biodistribution of radioactivity, Heart ([1]; 10 min after injection): 3.30 (1.02) % injected dose per gram | Biodistribution of radioactivity, Intestine ([1]; 10 min after injection): 2.00 (0.86) % injected dose per gram | Biodistribution of radioactivity, Kidney ([1]; 10 min after injection): 4.29 (1.25) % injected dose per gram | Biodistribution of radioactivity, Liver ([1]; 10 min after injection): 25.64 (6.77) % injected dose per gram | Biodistribution of radioactivity, Lung ([1]; 10 min after injection): 6.50 (1.41) % injected dose per gram | Biodistribution of radioactivity, Pancreas ([1]; 10 min after injection): 1.58 (0.55) % injected dose per gram | Biodistribution of radioactivity, Spleen ([1]; 10 min after injection): 3.00 (0.82) % injected dose per gram | Biodistribution of radioactivity, Stomach ([1]; 10 min after injection): 3.76 (0.82) % injected dose per organ | Biodistribution of radioactivity, Blood ([1]; 30 min after injection): 5.84 (0.65) % injected dose per gram | Biodistribution of radioactivity, Brain ([1]; 30 min after injection): 0.11 (0.02) % injected dose per gram | Biodistribution of radioactivity, Heart ([1]; 30 min after injection): 2.72 (0.28) % injected dose per gram | Biodistribution of radioactivity, Intestine ([1]; 30 min after injection): 6.81 (2.03) % injected dose per gram | Biodistribution of radioactivity, Kidney ([1]; 30 min after injection): 5.24 (0.59) % injected dose per gram | Biodistribution of radioactivity, Liver ([1]; 30 min after injection): 27.06 (2.49) % injected dose per gram | Biodistribution of radioactivity, Lung ([1]; 30 min after injection): 5.00 (0.34) % injected dose per gram | Biodistribution of radioactivity, Pancreas ([1]; 30 min after injection): 1.72 (0.11) % injected dose per gram | Biodistribution of radioactivity, Spleen ([1]; 30 min after injection): 3.11 (0.48) % injected dose per gram | Biodistribution of radioactivity, Stomach ([1]; 30 min after injection): 8.24 (1.41) % injected dose per organ | Biodistribution of radioactivity, Blood ([1]; 60 min after injection): 3.51 (0.34) % injected dose per gram | Biodistribution of radioactivity, Brain ([1]; 60 min after injection): 0.08 (0.02) % injected dose per gram | Biodistribution of radioactivity, Heart ([1]; 60 min after injection): 1.64 (0.32) % injected dose per gram | Biodistribution of radioactivity, Intestine ([1]; 60 min after injection): 9.95 (2.65) % injected dose per gram | Biodistribution of radioactivity, Kidney ([1]; 60 min after injection): 3.20 (0.45) % injected dose per gram | Biodistribution of radioactivity, Liver ([1]; 60 min after injection): 19.04 (3.61) % injected dose per gram | Biodistribution of radioactivity, Lung ([1]; 60 min after injection): 2.78 (0.54) % injected dose per gram | Biodistribution of radioactivity, Pancreas ([1]; 60 min after injection): 1.11 (0.18) % injected dose per gram | Biodistribution of radioactivity, Spleen ([1]; 60 min after injection): 1.36 (0.54) % injected dose per gram | Biodistribution of radioactivity, Stomach ([1]; 60 min after injection): 6.47 (0.85) % injected dose per organ
